According to patent US4680382A, “Analogues of actinomycin D” (priority 1986, dated 1987):
pIC50: −log10 of the molar value.

Tests used:
P388 Leukemia = test: Minimum effective dose and therapeutic index vs. P388 leukemia; format: in vivo; details: dose giving 45% increase in life span in P388 tumor bearing mice; ip days 1, 5 and 9
Protocol: (§1) These analogues were also tested in tumor-free BDF1 male mice for determination of their MTD values (Table VIII). The animals (18-22 g) were given a broad range of doses of drugs in 5% dimethyl sulfoxide-saline on days 1, 5 and 9. Drugs were administered ip and the maximum tolerated doses of agents which caused death in only 10% of the tested animals in 21 days (i.e., LD10) were recorded as MTD. […] However, the MED values of 7-hydroxy-AMD and its precursor AMD-OZL 10a are high and are seven to tenfold of the MED values of 4a and 8a. On the basis of these MED values, the therapeutic indices of 8a and 4a are 70 and 96. The therapeutic index of 2a is 13, of 10a 10, and of AMD only 4.
^a Drugs administered ip once on days 1, 5 and 9 starting 1 day after
tumor implantation. Determinations were made from analysis of plotted
^b MED (minimum effective dose) is the dose (milligram/kilogram)
providing an increase in life span of 45% over control in P388 tumor

[1] = Maximum tolerated dose (LD10) in tumor-free BDF1 male mice; format: in vivo; details: lethal dose for 10% normal BDF1 male mice, 21 days (LD10); ip days 1, 5 and 9
Protocol: as §1
^c MTD (maximum tolerated dose) is the lethal dose
(milligram/kilogram) for 10% normal BDF1 male mice (18-22 g); animal
calculated from a plot of logdose vs. percent mortality.

[2] = system: CCRF-CEM human lymphoblastic leukemic cells; test: In vitro cytotoxicity against CCRF-CEM cells; format: cell-based; details: 48 hr
Protocol: ^a Human lymphoblastic leukemic cells.
The analogues were tested for their cytotoxicity against tumor cells (time, 48 hr). […] This may be associated with the initial microsomal transformation of the "reverse" analogues to "symmetrical" analogue and/or other alternate bioactive forms (e.g., free-radicals, O2^-), followed by deactivation via formation of conjugates and facile elimination of these from the host. The "reverse" analogues show reduced toxicity in vivo and also the tritiated "reverse" 7a is metabolized in vitro.

B16 melanoma = test: In vivo antitumor activity against B16 melanoma; parameters: species or system BDF1 mice; details: for % ILS / surv (survivors on day 65/total injected) / MST (range): at optimal dose; for MST (range): control 29 (20-48); for optimal dose: ip, days 1, 5, 9
Protocol: AMD-OZL analogues 9a and 10a were about as active as AMD and 7-hydroxy-AMD. The potencies of these analogues are reduced in comparison to that of AMD; their optimal doses were higher than that of AMD.
^a 0.2 mL of 1:5 (weight/volume) brei of B16 melanoma implanted
ip on day 0 in groups of nine BDF1 mice. Drugs administered ip.
^b MST (range) median survival time in days (range of individual
^c % ILS (surv), percent increase in lifespan (survivors on day

P388/S = test: In vivo activity against P388/S (adriamycin sensitive) leukemia, Table VII; parameters: species or system BDF1 mice; details: for P388/S % ILS / P388/S tumor-free survivors/total on day 60: at optimal dose; for P388/S optimal dose: ip, days 1, 5 and 9
Protocol: (§2) ^a Male BDF1 mice inoculated ip: 10^6 cells inoculum, day 0.
(§3) Drugs administered in 10% dimethyl sulfoxidesaline on days 1, 5 and 9. %
(§4) ILS = percent increase in life span. Fractions in parentheses = tumorfree
(§5) survivors/total on day 60. P388/S (adriamycin sensitive) and P388/ADR
(§6) (adriamycin resistant) tumors were evaluated in the same experiment with […]

P388 cells [3] = test: Inhibition of RNA synthesis (2-[14C]uridine incorporation) in P388 cells; format: cell-based, murine; details: for pIC50: 50% reduction in 1 hr of 2-[14C]uridine incorporation, read-out: IC50 RNA synth; for IC50 DNA/IC50 RNA: ratio
Protocol: (§7) Experiments for inhibition of nucleic acid synthesis in tumor cells in vitro were carried out with P388 tumor cells, details of which were reported by Sengupta et al, J. Med. Chem., 18, 1175 (1975). […] AMD-OZLs inhibit either process with equal activity and with the potency of its metabolite 7-hydroxy-AMD.
^b IC50 (RNA) = concentration of inhibitor in μM required to
cause 50% reduction (in 1 hr) in 2[^14 C]uridine incorporation into
acid precipitable material with use of P388 cells.

[4] = system: P388 lymphocytic leukemia; test: In vivo antitumor activity against P388 leukemia; parameters: species or system BDF1 mice; details: for surv (surviving mice/total mice at 60 days) / % ILS / MST (range): P388, at optimal dose; for % ILS: 100(T/C - 1); for MST (range): control 11.0 (9-12); for optimal dose: P388, ip, days 1, 5 and 9, optimal nontoxic dose
Protocol: The analogues were tested for their antitumor activities in P388 lymphocytic leukemia in male BDF1 mice. The tumor was implanted intraperitoneally (ip) with 10^6 cells. The drugs were also administered ip once daily on days 1, 5 and 9, beginning 1 day after tumor transplantation. Analogues were tested over a range of doses, but only the optimal nontoxic doses are listed.
^a 10^6 P388 cells implanted ip on day 0 into groups of eight
BDF1 male mice. Drugs administered ip. MST (range), median survival
time in days (range of individual animal deaths); % ILS, percent increase
in life span, calculated 100(T/C - 1), where T and C are median survival
times of treated and control animals; surv, number of surviving mice/tota

P388 cells [5] = test: Inhibition of DNA synthesis (methyl-[3H]thymidine incorporation) in P388 cells; format: cell-based, murine; details: 50% reduction in 1 hr of methyl-[3H]thymidine incorporation, read-out: IC50 DNA synth
Protocol: as §7
^c IC50 (DNA) = concentration of inhibitor in μM required to
cause 50% reduction (in 1 hr) in methyl[^3 H]thymidine incorporation
into acid precipitable material with use of P388 cells.

P388/ADR = test: In vivo activity against P388/adriamycin-resistant leukemia; parameters: species or system BDF1 mice; details: for P388/ADR optimal dose: ip, days 1, 5 and 9
Protocol: as §2, §3, §4, §5, §6

DNA = test: Thermal denaturation of DNA (ΔTm); format: binding
Protocol: (§8) The "reverse" analogues bind to calf-thymus DNA, but the spectrophotometrically determined binding (Kapp and Bapp, equilibrium binding values) constants are found to be lower than those of AMD. The binding is also measured by thermal denaturation of DNA.
(§9) The equilibrium binding constants (Kapp and Bapp) of the "reverse" methyl 7a and the "reverse" phenyl 8a were determined from the Scatchard plots of binding isotherms; the Scatchard plots are produced according to the previously described methods using calf-thymus DNA [Sengupta et al, Biochem. Biophys. Acta 521, 89 (1978)]. The Kapp values are 2.5×10^6 and 2.3×10^6 M^-1, respectively; corresponding Bapp values are 0.038 and 0.036. […] But, these "reverse" analogues associate with DNA less strongly; their frequency of binding is also lower compared to that of AMD. However, the "reverse" analogues fail to cause any measurable change in the ratio of the intrinsic viscosity (γ) of DNA with the increasing ratios of [ligand]/DNA base pair (r), even when low molecular weight DNAs (0.5×10^5 to 1.0×10^5) were employed.
Melting points are determined on a Thomas-Hoover melting point apparatus at a heating rate of 2° C./min. Thin-layer chromatography was performed on silica gel plates (Brinkmann Instrument Inc.). Solvent systems were (A) EtOAc-acetone (4:1), (B) CHCl3 -MeOH (9:1) and (C) Cifferri, the organic phase of the mixture EtOAc-MeOH-H2 O (20:1:20). High-performance liquid chromatography was carried out on a Varian Model 5020 gradient liquid chromatograph equipped with a CD-111L chromatography data system and fitted with a Varian reversed-phase C18 column with the following solvent systems: I, CH3 CN-5 mM NH4 OAc buffer, pH 6.4 (68:32 isocratic), flow rate 1.5 mL/min; II, 65-95% water-methanol gradient for 70 min, 1 mL/min; III, 10-90% H2 O-MeOH gradient for 120 min, 1 mL/min, with UV-visible variable- and fixed-wavelength dual detectors at 254, 440, 470 and 520 nm. IR spectra were obtained on a Perkin-Elmer Model 237 Infra Cord with KBr micropellets or in chloroform solutions. UV-visible spectra were obtained on a Gilford 250 spectrophorometer, which, with the addition of a base-line reference compensator (Analog Multiplexer 5053) and thermoprogrammer, auto four cell programmer and thermoelectric cell holder 2577, were used to obtain thermal denaturation curves. Specific rotation values were determined in chloroform solutions with a Cary 60 spectropolarimeter. NMR spectra were obtained in a JEOL FQ-90 MHz spectrometer equipped with Fourier transform. EPR spectra analyses were recorded in a Varian E-9 EPR spectrometer. All elemental analyses were within ±0.4%.

calf-thymus DNA = test: Equilibrium binding to calf-thymus DNA, Scatchard plots of binding isotherms (spectrophotometric); details: Scatchard plot
Protocol: as §8, §9

Row | SMILES | MED (minimum effective dose) (P388 Leukemia) | MTD (maximum tolerated dose) [1] | in vitro (CCRF-CEM) ID50 [2] | % ILS (B16 melanoma) | surv (survivors on day 65/total injected) (B16 melanoma) | MST (range) (B16 melanoma) | optimal dose (B16 melanoma) | P388/S % ILS (P388/S) | P388/S tumor-free survivors/total on day 60 (P388/S) | P388/S optimal dose (P388/S) | pIC50 (P388 cells [3]) | IC50 DNA/IC50 RNA (P388 cells [3]) | surv (surviving mice/total mice at 60 days) [4] | % ILS [4] | MST (range) [4] | optimal dose [4] | pIC50 (P388 cells [5]) | P388/ADR % ILS (P388/ADR; at optimal dose) | P388/ADR optimal dose (P388/ADR) | other results
1 | Cc1c2oc3c(C)c4oc(-c5ccccc5)nc4c(C(=O)NC4C(=O)NC(C(C)C)C(=O)N5CCCC5C(=O)N(C)CC(=O)N(C)C(C(C)C)C(=O)OC4C)c3nc-2c(C(=O)NC2C(=O)NC(C(C)C)C(=O)N3CCCC3C(=O)N(C)CC(=O)N(C)C(C(C)C)C(=O)OC2C)cc1=O (stereo not drawn) [10a, 2-Phenyl-AMD--OZL] | 0.20 milligram/kilogram | 2.0 milligram/kilogram | 500 nM | 55% | 2/9 | 45 (33-56) days | 900 μg/kg per inj | 186% | 2/8 | 1.0 mg/kg | 5.49 | 1.78 | 2/8 | 186% | 31.5 (29-57) days | 1000.0 μg/kg per inj | 5.24 | 88% | 1.2 mg/kg | –
2 | Cc1c2oc3c(C)c4oc(-c5ccccc5)nc4c(C(=O)NC4C(=O)NC(C(C)C)C(=O)N5CCCC5C(=O)N(C)CC(=O)N(C)C(C(C)C)C(=O)OC4C)c3nc-2c(C(=O)NC2C(=O)NC(C(C)C)C(=O)N3CCCC3C(=O)N(C)CC(=O)N(C)C(C(C)C)C(=O)OC2C)c(N)c1=O [8a, 7-Amino-9,11-dimethyl-2-phenyl-8H-8-oxooxazolo [4,5-b]phenoxazine 4,6-bis[carbonyl-L-threonyl-D-valyl-L-prolylsarcosyl-L-N-methylvaline(threonine hydroxyl)] lactone] | 0.03 milligram/kilogram | 1.80 milligram/kilogram | 30 nM | 103% | 5/9 | 59 (53-59) days | 300 μg/kg per inj | 382% | 4/8 | 0.35 mg/kg | 7.15 | 11.43 | 4/8 | 382% | 52.0 (49-58) days | 375.0 μg/kg per inj | 6.10 | 132% | 0.6 mg/kg | ΔTm (DNA melting temperature) (DNA): 6.7±0.2 °C; Bapp (equilibrium binding value) (calf-thymus DNA): 0.036; Kapp (equilibrium binding constant) (calf-thymus DNA): 2.3e+06 M⁻¹; P388/ADR tumor-free survivors/total on day 60 (P388/ADR; at optimal dose): 1/8
